Data reported in PubChem BioAssay AID1919002 (Molecular Pharmacology Branch, DTP, NCI, 2023).

Test system: 743489-274-T-PDC complex spheroid growth
Assay: Anticancer human tumor 743489-274-T-PDC patient-derived renal cell carcinoma cell line growth inhibition [AhR]
Settings: for IC50: curve of first compound; for viability, T/C: stronger effect = lower value
Procedure, shortened: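 Agents were dosed in half-log steps down from roughly clinical Cmax, or from 10 microM where Cmax was unknown, alone and with AhR antagonists. Read-out: percent test/control growth of tumor spheroids containing HUVEC and MSC stromal cells.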

[1] = second compound 0.1 µM, first compound 0.0316 µM
[2] = second compound 0.1 µM, first compound 0.1 µM
[3] = second compound 0.1 µM, first compound 0.316 µM
[4] = second compound 0.1 µM, first compound 1 µM
[5] = second compound 0.1 µM, first compound 3.16 µM
[6] = second compound 0.1 µM, first compound 10 µM
[7] = second compound 0.316 µM, first compound 0.0316 µM
[8] = second compound 0.316 µM, first compound 0.1 µM
[9] = second compound 0.316 µM, first compound 0.316 µM
[10] = second compound 0.316 µM, first compound 1 µM
[11] = second compound 0.316 µM, first compound 3.16 µM
[12] = second compound 0.316 µM, first compound 10 µM
[13] = second compound 1 µM, first compound 0.0316 µM
[14] = second compound 1 µM, first compound 0.1 µM
[15] = second compound 1 µM, first compound 0.316 µM
[16] = second compound 1 µM, first compound 1 µM
[17] = second compound 1 µM, first compound 3.16 µM
[18] = second compound 1 µM, first compound 10 µM
[19] = second compound 3.16 µM, first compound 0.0316 µM
[20] = second compound 3.16 µM, first compound 0.1 µM
[21] = second compound 3.16 µM, first compound 0.316 µM
[22] = second compound 3.16 µM, first compound 1 µM
[23] = second compound 3.16 µM, first compound 3.16 µM
[24] = second compound 3.16 µM, first compound 10 µM
[25] = second compound 10 µM, first compound 0.0316 µM
[26] = second compound 10 µM, first compound 0.1 µM
[27] = second compound 10 µM, first compound 0.316 µM
[28] = second compound 10 µM, first compound 1 µM
[29] = second compound 10 µM, first compound 3.16 µM
[30] = second compound 10 µM, first compound 10 µM
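Note: spheroids exposed to agents for 7 days before readout.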
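Throughout, for viability, T/C: 100% = DMSO vehicle control wells.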

IC50 (second compound 0.1 µM) [µM]	IC50 (second compound 0.316 µM) [µM]	IC50 (second compound 1 µM) [µM]	IC50 (second compound 3.16 µM) [µM]	IC50 (second compound 10 µM) [µM]	SMILES	viability, T/C [1] [%]	viability, T/C [2] [%]	viability, T/C [3] [%]	viability, T/C [4] [%]	viability, T/C [5] [%]	viability, T/C [6] [%]	viability, T/C [7] [%]	viability, T/C [8] [%]	viability, T/C [9] [%]	viability, T/C [10] [%]	viability, T/C [11] [%]	viability, T/C [12] [%]	viability, T/C [13] [%]	viability, T/C [14] [%]	viability, T/C [15] [%]	further results
4.81	3.74	4.31	1.74	1.08	Nc1ccccc1NC(=O)c1ccc(CNC(=O)OCc2cccnc2)cc1 + CC(CO)NC(=O)c1cc(-c2ccc(Cl)cc2)nn(-c2cnn(C)c2)c1=O	92.7	92.3	92.9	72.5	61.8	32.9	89.1	80.9	87.9	62.6	55.4	34.6	92.5	91	80.5	viability, T/C [16]: 78.4%; viability, T/C [17]: 56.4%; viability, T/C [18]: 29.7%; viability, T/C [19]: 88.4%; viability, T/C [20]: 88.5%; viability, T/C [21]: 78%; viability, T/C [22]: 59.7%; viability, T/C [23]: 39.7%; viability, T/C [24]: 27.7%; viability, T/C [25]: 79.1%; viability, T/C [26]: 87.3%; viability, T/C [27]: 69.2%; viability, T/C [28]: 52.4%; viability, T/C [29]: 31.3%; viability, T/C [30]: 23.4%
5.54	5.43	9.11	8.62	4.79	COc1cccc2c1C(=O)c1c(O)c3c(c(O)c1C2=O)CC(O)(C(=O)CO)CC3OC1CC(N)C(O)C(C)O1 (stereo not given) + Cc1ccccc1N=Nc1ccc(NC(=O)c2ccnn2C)c(C)c1	102	97.3	114	102	73.3	25.6	107	96.8	99.7	105	81.4	14.5	96	101	98.6	viability, T/C [16]: 95.2%; viability, T/C [17]: 80.4%; viability, T/C [18]: 47.3%; viability, T/C [19]: 90%; viability, T/C [20]: 88.8%; viability, T/C [21]: 105%; viability, T/C [22]: 96%; viability, T/C [23]: 87.3%; viability, T/C [24]: 44.3%; viability, T/C [25]: 85.3%; viability, T/C [26]: 82.2%; viability, T/C [27]: 95.1%; viability, T/C [28]: 83.5%; viability, T/C [29]: 71.9%; viability, T/C [30]: 11.7%
> 10	> 10	9.15	1.48	> 10	Nc1ccn(C2OC(CO)C(O)C2(F)F)c(=O)n1 (stereo not given) + Cc1ccccc1N=Nc1ccc(NC(=O)c2ccnn2C)c(C)c1	65	62.7	54.7	63.4	57.1	59.1	66.4	62	56.5	59.4	54.8	53.1	61	57.4	65.6	viability, T/C [16]: 56.7%; viability, T/C [17]: 51.2%; viability, T/C [18]: 50.8%; viability, T/C [19]: 68.1%; viability, T/C [20]: 55.8%; viability, T/C [21]: 51.9%; viability, T/C [22]: 45.5%; viability, T/C [23]: 50.8%; viability, T/C [24]: 52.3%; viability, T/C [25]: 69.9%; viability, T/C [26]: 56.9%; viability, T/C [27]: 51.4%; viability, T/C [28]: 60.6%; viability, T/C [29]: 47.8%; viability, T/C [30]: 55.4%
